Converted amounts (≈) assume the structure as drawn.
Columns and labels:
[1] = Gravimetric vapour sorption (GVS); format: physicochemical; conditions: 25° C.
Experimental: Sorption isotherms were obtained using a SMS DVS Intrinsic moisture sorption analyzer, controlled by SMS Analysis Suite software. The sample temperature was maintained at 25° C. by the instrument controls. The humidity was controlled by mixing streams of dry and wet nitrogen, with a total flow rate of 200 ml·min^−1. The relative humidity was measured by a calibrated Rotronic probe (dynamic range of 1.0-100% RH), located near the sample. The weight change, (mass relaxation) of the sample as a function of % RH was constantly monitored by the microbalance (accuracy ±0.005 mg).
Typically 5-20 mg of sample was placed in a tared mesh stainless steel basket under ambient conditions. The sample was loaded and unloaded at 40% RH and 25° C. (typical room conditions). A moisture sorption isotherm was performed as outlined below (2 scans giving 1 complete cycle). The standard isotherm was performed at 25° C. at 10% RH intervals over a 0.5-90% RH range.
The sample was recovered after completion of the isotherm and re-analyzed by XRPD.
A sample of SP-4 was ground with a pestle and mortar, and then successively passed through 500 and 250 μm sieves to yield the sample as a fine powder that was then analyzed using a modified single cycle method. The sample was taken from 40% RH (approximately ambient) to 60% RH, instead of 90% for the standard method, and then cycled to 0% and back to 40% RH.

[2] = system: HCV replication; test: HCV replicon assay (firefly luciferase reporter); format: cell-based, hepatitis C virus; conditions: replicon containing cells, 4 days incubation, Bright-Glo firefly luciferase reporter
Experimental: Replicon containing cells were seeded at either 3,000 cells/well (50 μL) in 96-well white/opaque plates, or 1,500 cells/well (25 μL) in 384-well white/opaque plates. 50 μL of 2× compound were added in the 96 well plate or 25 μL of 2× compound were added in the 384 well plate. The plates were incubated at 37° C. in a humidified 5% CO2 atmosphere for 4 days. After incubation, Bright-Glo reagent (50 μL for 96-well plate, or 25 μL for 384-well plate) was added to measure the firefly luciferase reporter for HCV replication. Percent inhibition was calculated against the no drug control.

[3] = Stability at elevated temperatures and relative humidity; format: physicochemical
Experimental: A sample of RP-4 was stored in a humidity chamber at 40° C. and 75% relative humidity for one week, and the sample was reanalyzed by XRPD. […] This should be contrasted to a sample of 4, which deliquesced within about 16 hours upon storage at 40° C. and 75% relative humidity. Indeed, an illustration of the deliquescent nature of 4 is illustrated by the following. A sample of 4 was passed through a 250 μm sieve then samples were stored at 40° C./75% RH and 25° C./53% relative humidity and visual observations were taken at regular intervals.
Upon storage at 40° C. and 75% relative humidity a sample of SP-4 deliquesced inside 16 hours. For instance, a sample of SP-4 was ground with a pestle and mortar, and then successively passed through 500 and 250 μm sieves to yield the sample as a fine powder. Samples of this material were stored at 40° C. and 75% relative humidity and 25° C. and 53% RH and visual observations were taken at regular intervals.

[4] = Thermodynamic aqueous solubility; format: physicochemical; conditions: for pH of Unfiltered mixture: aqueous suspension after 24 hours at 25° C.; for solubility at 24 h / Solubility: water; for solubility at 24 h: 25 °C, thermodynamic from solid, summary of batch characterization (Table 16), read-out: Aq Solubility; for Solubility: equilibrated at 25° C. for 24 hours, HPLC quantitation
Experimental: Aqueous solubility was determined by suspending a sufficient amount of compound in water to give a maximum final concentration of >10 mg·ml^−1 of the parent free-form of the compound. The suspension was equilibrated at 25° C. for 24 hours then the pH was measured. The suspension was then filtered through a glass fiber C filter into a 96 well plate. The filtrate was then diluted by a factor of 101. Quantitation was by HPLC with reference to a standard solution of approximately 0.1 mg·ml^−1 in DMSO. Different volumes of the standard, diluted and undiluted sample solutions were injected. The solubility was calculated using the peak areas determined by integration of the peak found at the same retention time as the principal peak in the standard injection.
Analysis was performed under the above-noted conditions on an Agilent HP1100 series system equipped with a diode array detector and using ChemStation software vB.02.01-SR1.

[5] = system: hepatitis C virus, genotypes 1-4; test: Genotype coverage
[6] = Storage stability of crystalline form in a sealed container; format: physicochemical
From the text: First, by allowing fine crystals of Form 1 to be exposed to atmospheric humidity for several days, a monohydrate of Form 1 is produced with an appearance of a solidified gum. After grinding the monohydrate solid to a fine powder, the XRPD pattern remains consistent with Form 1. Upon standing in an open vessel for 6-10 weeks, the ground material slowly changes to Form 6 as an anhydrous solid. Form 1 is stable for at least 2 years in a sealed container.

[7] = summary of batch characterization (Table 16)

Structure (SMILES): CC(C)OC(=O)[C@H](C)N[P@@](=O)(OC[C@H]1O[C@@H](n2ccc(=O)[nH]c2=O)[C@](C)(F)[C@@H]1O)Oc1ccccc1 (single isomer, unassigned) [RP-4]
- hygroscopicity by GVS analysis [1]: non-hygroscopic
- reversible uptake of water ([1]; from 0 to 90% relative humidity): approximately 0.2 wt %
- HCV Replicon Activity [2]: 2.87 µM
- change in solid form by XRPD after storage ([3]; 40° C. and 75% relative humidity for one week): no change in solid form was observed
- 40° C./75% RH (stability summary) [3, 7]: No form change
- pH of Unfiltered mixture [4]: 7.12
- solubility at 24 h [4]: 1580 µg/mL (≈ 2.98 mM)
- Solubility [4]: 1.58 mg. m1^−1
- activity against hepatitis C virus, genotypes 1-4 (broad genotype coverage) [5]: active

Structure (SMILES): CC(C)OC(=O)[C@H](C)NP(=O)(OC[C@H]1O[C@@H](n2ccc(=O)[nH]c2=O)[C@](C)(F)[C@@H]1O)Oc1ccccc1 (stereo partly drawn) [Compound 4, (S)-2-{[(1R,4R,5R)-5-(2,4-Dioxo-3,4-dihydro-2H-pyrimidin-1-yl)-4-(R)-fluoro-3-hydroxy-4-methyl-tetrahydro-furan-2-ylmethoxy]-phenoxy-phosphorylamino}-propionic acid isopropyl ester]
- HCV Replicon Activity [2]: 0.58 µM
- time to deliquescence upon storage ([3]; 40° C. and 75% relative humidity): ≤ 16 h
- 25° C./53% RH (stability summary) [3, 7]: Deliquescence
- pH of Unfiltered mixture [4]: 7.03
- solubility at 24 h [4]: 6110 µg/mL (≈ 11.5 mM)
- Solubility [4]: 6.11 mg. m1^−1

Structure (SMILES): CC(C)OC(=O)[C@H](C)N[P@](=O)(OC[C@H]1O[C@@H](n2ccc(=O)[nH]c2=O)[C@](C)(F)[C@@H]1O)Oc1ccccc1 [Form 1]
- stable in a sealed container [6]: at least 2 years

Structure (SMILES): CC(C)OC(=O)[C@H](C)N[P@](=O)(OC[C@H]1O[C@@H](n2ccc(=O)[nH]c2=O)[C@](C)(F)[C@@H]1O)Oc1ccccc1 [SP-4, (S)-Isopropyl 2-((S)-(((2R,3R,4R,5R)-5-(2,4-dioxo-3,4-dihydropyrimidin-1(2H)-yl)-4-fluoro-3-hydroxy-4-methyltetrahydrofuran-2-yl)methoxy)(phenoxy)phosphorylamino)propanoate]
- HCV Replicon Activity [2]: 0.13 µM
- visual observation (stability to elevated relative humidity) ([3]; 40° C./75% RH, t = 4.5 h): Deliquescence
- 25° C./53% RH (stability summary) [3, 7]: No form change
- solubility at 24 h [4]: 5650 µg/mL (≈ 10.7 mM)
- Solubility [4]: 5.65 mg. m1^−1
- activity against hepatitis C virus, genotypes 1-4 (broad genotype coverage) [5]: active
